{"source": "patent US11234982B2", "about": "“Methods for treating ocular surface pain” (NOVARTIS AG, priority 2019, dated 2022)", "key": {"[1]": {"assay": "PRK study: residual compound I in bandage contact lens (BCL)", "format": "in vivo, human", "method": "Compound I was quantified in plasma using a validated LC-MS/MS method; the lower limit of quantification (LLOQ) was 0.05 ng/mL. Concentrations were expressed in ng per mL units. When feasible, bandage contact lenses (BCL) exposed to study drug were collected and analyzed for residual drug exposure after treatment (LLOQ: 5.00 ng/mL in 0.55 mL of extraction fluid, or 2.75 ng/BCL). Concentrations below the LLOQ were reported as “zero” and missing data were labeled as such.\nBandage Contact Lens (BCL) was collected from 40 patients on Day 4 of the dose administration and analyzed for compound I. Values from the three IMP non-compliant patients were excluded from BCL summary statistics, leaving 37 values evaluable, including one value from a patient without available plasma PK. The mean concentration of compound I (CV %) in 0.55 mL extraction fluid was 8500 ng/mL (73.1%), with a wide range of 284 to 22600 ng/mL. These concentrations translate to an estimated mean of 4680 ng/lens (0.55 mL×8500 ng/mL), and a range of 156 to 12400 ng/lens. The amount in BCL was very small in relation to the 0.925 mg dose of compound I administered: mean 0.51%, and range of 0.017% to 1.3% of dose."}, "[2]": {"tested_on": "patients undergoing photorefractive keratectomy (PRK) surgery", "assay": "PRK study: adverse events", "format": "in vivo, human", "method": "The study was a proof of concept, double-masked, randomized, vehicle-controlled study of compound I administered as eye drops in addition to standard of care treatment in patients after PRK surgery. PRK surgery was performed as an outpatient procedure under topical anesthesia with removal of the corneal epithelium to expose the stroma for the laser ablation. Compound I dosing was as single eye drop of 2.5% (25 mg/ml, 0.925 mg/drop), administered four times daily (every six hours) in one eye from immediate post-op (time 0) to last dose at 72 hours.\nSafety assessments consisted of collecting all AEs, SAEs, with their severity and relationship to study drug. Only signs and symptoms greater than the listed ranges of either severity or duration were reported as AEs.\nAdverse events and serious adverse events included an assessment of both systemic and ocular assessments. Systemic safety assessments included regular assessments of height and weight, vital signs, reporting medication errors including misuse/abuse, pregnancy reporting and early phase safety monitoring. The misuse/abuse, pregnancy reporting and early phase safety monitoring were not assessed for the study. Ocular safety assessments included the following: • Best-corrected visual acuity (BCVA) and uncorrected visual acuity (UCVA): Was measured at each visit using an ETDRS visual acuity chart at 4 meters (13 feet) or 1 meter (for patients that cannot read the 4 meter chart). The BCVA scoring was done based on the number of correctly read letters plus 30. If visual acuity was so poor that the patient could not read any of the largest letters at 1 meter, count fingers and hand movement vision and light perception was tested. • Intraocular Pressure (TOP): IOP measurements were conducted with applanation tonometry or Tonopen. • Dilated fundus exam: The dilated fundus examination included ophthalmoscopic assessments of the vitreous, retina/macula/choroid, and optic nerve. Evaluations for retinal tear/detachment, retinal hemorrhage, vitreous hemorrhage density, vitreous haze grading and abnormal findings were done and scored according to grading criteria. • Ocular hyperemia: Conjunctival redness of the bulbar conjunctiva in each eye at the slit lamp according to the McMonnies redness scale was graded. […] By adjusting the calibrated slit beam width and height, the maximum horizontal (wound width) and vertical dimensions (wound height) of the surgical epithelial wound was estimated. The evaluation was performed until wound closure and report of wound size as 0 horizontal and 0 vertical dimensions. • Slit-lamp biomicroscopy: Ocular signs (eyelids/conjunctiva, cornea, lens, and iris/anterior chamber) was assessed in both eyes by slit lamp biomicroscopy according to the grading criteria. • Blink rate: A blink was defined as a bilateral paroxysmal closure of the eyelids (duration<1 second) in the absence of a provoking external stimulus. Each blink assessment lasted for 2 min (or as close to 2 minutes as possible with minimum time 1 minute) and the obtained blink rate was averaged to calculate blink rate in blinks/min. • Tear production (Schirmer's test without anesthesia): The test was performed without anesthetic in both eyes simultaneously. Tear secretion was measured in millimeters of the length of strip wetted by tears. […] The strip was wetted with 1 drop of sterile saline and flicked to remove excess saline. The patient blinked several times to ensure dispersion of the dye throughout the tear film prior to grading on a scale of 0-3 (0=Normal, No staining; 1=Mild, Superficial stippling micropunctate staining; 2=Moderate, Macropunctate staining with some coalescent areas and 3=Severe, Numerous coalescent macropunctate areas and/or patches) for each of 5 zones (central plus 4 quadrants)."}}, "note": "Entries after “also recorded” stand apart in the source; their conditions may differ.", "data": [{"smiles": "CC(C)c1nc2cc(O)ccc2c(=O)n1-c1ccc(C#N)cc1", "note": "[Compound I, 4-(7-hydroxy-2-isopropyl-4-oxo-4H-quinazolin-3-yl)-benzonitrile]", "values": [{"measurement": "Range of concentration of compound I in BCL extraction fluid", "setting": "[1]; 0.55 mL extraction fluid, Day 4", "result": "284 to 22600", "unit": "ng/mL"}, {"measurement": "Mean concentration of compound I in BCL extraction fluid", "setting": "[1]; 0.55 mL extraction fluid, Day 4, 37 values", "result": 8500, "unit": "ng/mL"}, {"measurement": "Estimated mean amount of compound I per lens", "setting": "[1]; 0.55 mL×8500 ng/mL", "result": 4680, "unit": "ng/lens"}, {"measurement": "Amount in BCL in relation to the 0.925 mg dose, mean", "setting": "[1]; Day 4", "result": "0.51 % of dose"}, {"measurement": "Amount in BCL in relation to the 0.925 mg dose, range", "setting": "[1]; Day 4", "result": "0.017 % of dose"}, {"measurement": "Range of amount of compound I per lens", "setting": "[1]; Day 4", "result": "156 to 12400", "unit": "ng/lens"}, {"measurement": "Non-ocular AE Arthralgia: Procedure related", "setting": "[2]; Compound I 2.5%", "result": "no"}, {"measurement": "Non-ocular AE Arthralgia: Severity", "setting": "[2]; Compound I 2.5%", "result": "mild"}, {"measurement": "Non-ocular AE Headache: Procedure related", "setting": "[2]; Compound I 2.5%", "result": "no"}, {"measurement": "Non-ocular AE Headache: Severity", "setting": "[2]; Compound I 2.5%", "result": "mild"}, {"measurement": "Non-ocular AE Nasopharyngitis: Procedure related", "setting": "[2]; Compound I 2.5%", "result": "no"}, {"measurement": "Non-ocular AE Nasopharyngitis: Severity", "setting": "[2]; Compound I 2.5%", "result": "mild, mild"}, {"measurement": "Non-ocular AE Oropharyngeal Pain: Procedure related", "setting": "[2]; Compound I 2.5%", "result": "no"}, {"measurement": "Non-ocular AE Oropharyngeal Pain: Severity", "setting": "[2]; Compound I 2.5%", "result": "mild"}, {"measurement": "Non-ocular AE Pyrexia: Procedure related", "setting": "[2]; Compound I 2.5%", "result": "no"}, {"measurement": "Non-ocular AE Pyrexia: Severity", "setting": "[2]; Compound I 2.5%", "result": "moderate"}, {"measurement": "Non-ocular AE Sinus Congestion: Procedure related", "setting": "[2]; Compound I 2.5%", "result": "no"}, {"measurement": "Non-ocular AE Sinus Congestion: Severity", "setting": "[2]; Compound I 2.5%", "result": "moderate"}, {"measurement": "Non-ocular AE Sinusitis: Procedure related", "setting": "[2]; Compound I 2.5%", "result": "no"}, {"measurement": "Non-ocular AE Sinusitis: Severity", "setting": "[2]; Compound I 2.5%", "result": "moderate"}, {"measurement": "Non-ocular AE Vomiting: Procedure related", "setting": "[2]; Compound I 2.5%", "result": "no"}, {"measurement": "Non-ocular AE Vomiting: Severity", "setting": "[2]; Compound I 2.5%", "result": "moderate"}, {"measurement": "Ocular AE Corneal Opacity: Procedure related", "setting": "[2]; Compound I 2.5%", "result": "yes"}, {"measurement": "Ocular AE Corneal Opacity: Severity", "setting": "[2]; Compound I 2.5%", "result": "mild"}, {"measurement": "Ocular AE Posterior Vitreous Detachment: Procedure related", "setting": "[2]; Compound I 2.5%", "result": "no"}, {"measurement": "Ocular AE Posterior Vitreous Detachment: Severity", "setting": "[2]; Compound I 2.5%", "result": "mild"}, {"measurement": "Ocular AE Punctate Keratitis: Procedure related", "setting": "[2]; Compound I 2.5%", "result": "yes"}, {"measurement": "Ocular AE Punctate Keratitis: Severity", "setting": "[2]; Compound I 2.5%", "result": "mild"}, {"measurement": "Non-ocular AE Arthralgia: patients", "setting": "[2]; Compound I 2.5%, N = 40", "result": "1 (2.5) n (%)"}, {"measurement": "Non-ocular AE Headache: patients", "setting": "[2]; Compound I 2.5%, N = 40", "result": "1 (2.5) n (%)"}, {"measurement": "Non-ocular AE Nasopharyngitis: patients", "setting": "[2]; Compound I 2.5%, N = 40", "result": "2 (5.0) n (%)"}, {"measurement": "Non-ocular AE Oropharyngeal Pain: patients", "setting": "[2]; Compound I 2.5%, N = 40", "result": "1 (2.5) n (%)"}, {"measurement": "Non-ocular AE Pyrexia: patients", "setting": "[2]; Compound I 2.5%, N = 40", "result": "1 (2.5) n (%)"}, {"measurement": "Non-ocular AE Sinus Congestion: patients", "setting": "[2]; Compound I 2.5%, N = 40", "result": "1 (2.5) n (%)"}, {"measurement": "Non-ocular AE Sinusitis: patients", "setting": "[2]; Compound I 2.5%, N = 40", "result": "1 (2.5) n (%)"}, {"measurement": "Non-ocular AE Tinnitus: patients", "setting": "[2]; Compound I 2.5%, N = 40", "result": "0 n (%)"}, {"measurement": "Non-ocular AE Vomiting: patients", "setting": "[2]; Compound I 2.5%, N = 40", "result": "1 (2.5) n (%)"}, {"measurement": "Number of AEs", "setting": "[2]; Compound I 2.5%, N = 40", "result": 12}, {"measurement": "Number of drug-related AEs", "setting": "[2]; Compound I 2.5%, N = 40", "result": 0}, {"measurement": "Number of mild severity AEs", "setting": "[2]; Compound I 2.5%, N = 40", "result": 8}, {"measurement": "Number of moderate severity AEs", "setting": "[2]; Compound I 2.5%, N = 40", "result": 4}, {"measurement": "Number of non-ocular AEs", "setting": "[2]; Compound I 2.5%, N = 40", "result": 9}, {"measurement": "Number of ocular AEs", "setting": "[2]; Compound I 2.5%, N = 40", "result": 3}, {"measurement": "Number of procedure-related AEs", "setting": "[2]; Compound I 2.5%, N = 40", "result": 2}, {"measurement": "Number of severe AEs", "setting": "[2]; Compound I 2.5%, N = 40", "result": 0}, {"measurement": "Ocular AE Corneal Infiltrate: patients", "setting": "[2]; Compound I 2.5%, N = 40", "result": "0 n (%)"}, {"measurement": "Ocular AE Corneal Opacity: patients", "setting": "[2]; Compound I 2.5%, N = 40", "result": "1 (2.5) n (%)"}, {"measurement": "Ocular AE Posterior Vitreous Detachment: patients", "setting": "[2]; Compound I 2.5%, N = 40", "result": "1 (2.5) n (%)"}, {"measurement": "Ocular AE Punctate Keratitis: patients", "setting": "[2]; Compound I 2.5%, N = 40", "result": "1 (2.5) n (%)"}, {"measurement": "Patients with at least one AE", "setting": "[2]; Compound I 2.5%, N = 40", "result": "8 (20) n (%)"}, {"measurement": "Patients with at least one non-ocular AE", "setting": "[2]; Compound I 2.5%, N = 40", "result": "6 (15) n (%)"}, {"measurement": "Patients with at least one ocular AE", "setting": "[2]; Compound I 2.5%, N = 40", "result": "3 (7.5) n (%)"}, {"measurement": "Differences in safety between compound I and Vehicle", "setting": "[2]; PRK study", "result": "no observed clinically meaningful differences in safety"}, {"measurement": "Deaths, SAEs, discontinuations due to AEs", "setting": "[2]; PRK study, 2.5% four times daily for 72 hours", "result": "no deaths or SAEs or discontinuation of the drug or discontinuation from the study due to AEs; also recorded: no deaths, or serious or severe AEs, treatment discontinuations or study discontinuations"}]}]}
